We go through five molecules from article PMC10600881 (ACS Omega, 2023).

For test [1], the system named is P. aeruginosa (ATCC 29853). The experiment in a line: Broth microdilution assay, MIC/MBC. The test is classed as cell-based. Conditions: for ratio (MBC/MIC): P. aeruginosa (ATCC 29853); for bactericidal or bacteriostatic effect: MBC/MIC ≤ 4 = bactericidal; for MBC / MIC: Pseudomonas aeruginosa. A general note: In broth dilution the organism is exposed to a series of concentrations in liquid medium.

Test [2] addresses T1, M. tuberculosis DHFR enzyme (Mycobacterium tuberculosis, UniProt P9WNX1).
T1 sequence (P9WNX1 1-161): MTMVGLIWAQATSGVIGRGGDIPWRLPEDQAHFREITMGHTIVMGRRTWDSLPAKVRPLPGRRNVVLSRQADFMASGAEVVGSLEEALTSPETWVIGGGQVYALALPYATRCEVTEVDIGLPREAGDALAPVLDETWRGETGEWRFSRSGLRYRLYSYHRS
Kind of test: biochemical.

The subject of the next test is B. subtilis (ATCC 9372). Kind of test: Broth microdilution assay, MIC. The test is classed as cell-based. Conditions: Bacillus subtilis, ATCC9372, read-out: Minimum Inhibitory Concentration.
In test [3] the test system is M. tuberculosis (RCMB 010126). The experiment in a line: Microplate alamar blue assay. The class given is cell-based, Mycobacterium tuberculosis. Conditions: MABA.
Another test has as its system E. coli (ATCC25922). Kind of test: Broth microdilution assay, MIC. The test is classed as cell-based. Conditions: Escherichia coli, ATCC25922, read-out: Minimum Inhibitory Concentration.
A further test concerns C. albicans (ATCC 10231). The experiment in a line: Broth microdilution assay, antifungal MIC/MFC. The test is classed as cell-based, Candida albicans. Conditions: for ratio (MFC/MIC): C. albicans (ATCC 10231); for fungicidal or fungistatic behavior: C. albicans, MFC/MIC > 4 = fungistatic; for MFC / MIC: Candida albicans.
The next test concerns S. aureus (ATCC 25923). The experiment in a line: Broth microdilution assay, MIC. Conditions: Staphylococcus aureus, ATCC25923, read-out: Minimum Inhibitory Concentration. The test is classed as cell-based.
The mark [4] stands for this setting: ATCC29853, read-out: Minimum Inhibitory Concentration.
Setting [5] is: Mycobacterium tuberculosis, RCMB010126, sensitive Mycobacterium tuberculosis (RCMB 010126).
The mark [6] stands for this setting: sensitive Mycobacterium tuberculosis (RCMB 010126).
Where [7] appears, read: ATCC10231, read-out: Minimum Inhibitory Concentration.

Values after ≈ are worked out from the molar mass of the structure shown. Read-outs that look alike come from different tables or passages of the source.

Broadly, the MBC is the lowest tested concentration that kills the bacteria rather than only halting them. In general, IC50 refers to the concentration that inhibits the measured activity by half. By MFC is commonly meant the lowest tested concentration that kills the fungus rather than only halting it. As for `Brc1ccc(-c2csc(N3N=C(c4cccs4)CC3c3cccs3)n2)cc1` (centres unmarked) [4c, 1-(4-(4-Bromophenyl)thiazol-2-yl)-4,5-dihydro-3,5-di(thiophen-2-yl)-1H-pyrazole], the “ratio (MBC/MIC)” value in test [1] amounted to 4. In test [1] (P. aeruginosa, from MICs), the “fold more efficient than amoxicillin” value is approximately 16 fold. Moreover, the “bactericidal or bacteriostatic effect” value in test [1] (P. aeruginosa) is reported as “bactericidal”. Moreover, the MBC in test [1] (ATCC29853) was 125 µg/mL (≈ 265 µM). Moreover, the MIC in test [1] (ATCC29853) is 31.2 µg/mL (≈ 66.1 µM); in test [1] (setting [4]), 31.2 µg/mL (≈ 66.1 µM); in the test on B. subtilis (ATCC 9372) it was 125 µg/mL (≈ 265 µM); in test [3] (setting [5]), 0.12 to 1.95 µg/mL (≈ 0.254 to 4.13 µM); in test [3] (setting [6]), 0.12 µg/mL (≈ 0.254 µM); in the test with E. coli (ATCC25922), more than 500 µg/mL. Further, the figures for the MIC in the test with C. albicans (ATCC 10231) (ATCC10231), in the test with C. albicans (ATCC 10231) (setting [7]) and with S. aureus (ATCC 25923) were 3.9 µg/mL (≈ 8.25 µM), 3.9 µg/mL (≈ 8.25 µM) and 62.5 µg/mL (≈ 132 µM), respectively. For the same molecule, in test [2], the midpoint of inhibition, the IC50, lay at 4.21 ± 0.13 µM. The “ratio (MFC/MIC)” value in the test on C. albicans (ATCC 10231) came to 8. In addition, in the test on C. albicans (ATCC 10231), the “fungicidal or fungistatic behavior” value is listed as “fungistatic”. In the test on C. albicans (ATCC 10231) (ATCC10231), the MFC was 31.2 µg/mL (≈ 66.1 µM).

For the molecule `COc1ccc(OC)c(C2CC(c3cccs3)=NN2C2=NC(=O)CS2)c1` (centres unmarked) [6b, 2-(4,5-Dihydro-5-(2,5-dimethoxyphenyl)-3-(thiophen-2-yl)pyrazol-1-yl)thiazol-4(5H)-one], the “ratio (MBC/MIC)” value in test [1] is given as 4. Besides, in test [1] (P. aeruginosa), the “bactericidal or bacteriostatic effect” value is reported as “bactericidal”. The molecule also gave an MBC in test [1] (ATCC29853) of 15.6 µg/mL (≈ 40.3 µM). Besides, the MIC in test [1] (ATCC29853) was 3.9 µg/mL (≈ 10.1 µM); in test [1] (setting [4]) it was 3.9 µg/mL (≈ 10.1 µM); with B. subtilis (ATCC 9372), 125 µg/mL (≈ 323 µM); in test [3] (setting [5]), 0.12 to 1.95 µg/mL (≈ 0.31 to 5.03 µM); in test [3] (setting [6]), 0.12 µg/mL (≈ 0.31 µM); in the test with E. coli (ATCC25922), 125 µg/mL (≈ 323 µM). In addition, the figures for the MIC with C. albicans (ATCC 10231) (ATCC10231), in the test on C. albicans (ATCC 10231) (setting [7]) and with S. aureus (ATCC 25923) were 3.9 µg/mL (≈ 10.1 µM), 3.9 µg/mL (≈ 10.1 µM) and 62.5 µg/mL (≈ 161 µM), respectively. Also, it took 5.7 ± 0.28 µM to reach half-maximal inhibition in test [2] (IC50). The “ratio (MFC/MIC)” value with C. albicans (ATCC 10231) came to 4. The molecule further returned an MFC with C. albicans (ATCC 10231) (ATCC10231) of 15.6 µg/mL (≈ 40.3 µM).

For the molecule `COc1ccc(OC)c(C2CC(c3cccs3)=NN2C2=NC(=O)C(=C3C(=O)Nc4ccccc43)S2)c1` (centres unmarked) [9b, 3-(2-(4,5-Dihydro-5-(2,5-dimethoxyphenyl)-3-(thiophen-2-yl)pyrazol-1-yl)-4-oxothiazol-5(4H)-ylidene)indolin-2-one], the “ratio (MBC/MIC)” value in test [1] was determined as 2. Further, the “bactericidal or bacteriostatic effect” value in test [1] (P. aeruginosa) is “bactericidal”. Besides, in test [1] (ATCC29853), the MBC is 125 µg/mL (≈ 242 µM). The MIC amounted to 62.2 µg/mL (≈ 120 µM) in test [1] (ATCC29853); 62.2 µg/mL (≈ 120 µM) in test [1] (setting [4]); 125 µg/mL (≈ 242 µM) in the test on B. subtilis (ATCC 9372); 125 µg/mL (≈ 242 µM) in the test with E. coli (ATCC25922); 31.2 µg/mL (≈ 60.5 µM) in the test with C. albicans (ATCC 10231) (ATCC10231); 31.2 µg/mL (≈ 60.5 µM) in the test on C. albicans (ATCC 10231) (setting [7]). Further, in the test with S. aureus (ATCC 25923), the MIC is 62.5 µg/mL (≈ 121 µM). The same molecule yielded an IC50 in test [2] of 22.7 ± 0.55 µM. The “ratio (MFC/MIC)” value with C. albicans (ATCC 10231) stood at 16. In the test on C. albicans (ATCC 10231), the “fungicidal or fungistatic behavior” value was “fungistatic”. The MFC against C. albicans (ATCC 10231) (ATCC10231) came out at 500 µg/mL (≈ 968 µM).

As for `COc1ccc(C=C2SC(N3N=C(c4cccs4)CC3c3cc(OC)ccc3OC)=NC2=O)cc1` (centres unmarked) [8b, 5-(4-Methoxybenzylidene)-2-(4,5-dihydro-5-(2,5-dimethoxyphenyl)-3-(thiophen-2-yl)pyrazol-1-yl)thiazol-4(5H)-one], the “ratio (MBC/MIC)” value in test [1] was 8. In test [1] (ATCC29853), the MBC came to 500 µg/mL (≈ 989 µM). For the same molecule, the MIC was 62.2 µg/mL (≈ 123 µM) in test [1] (ATCC29853); 62.2 µg/mL (≈ 123 µM) in test [1] (setting [4]); 62.5 µg/mL (≈ 124 µM) in the test on B. subtilis (ATCC 9372); more than 500 µg/mL with E. coli (ATCC25922); 31.2 µg/mL (≈ 61.8 µM) with C. albicans (ATCC 10231) (ATCC10231); 31.2 µg/mL (≈ 61.8 µM) in the test with C. albicans (ATCC 10231) (setting [7]). In addition, in the test on S. aureus (ATCC 25923), the MIC came out at 62.5 µg/mL (≈ 124 µM). In test [2], this molecule showed an IC50 of 18.5 ± 0.61 µM. The “ratio (MFC/MIC)” value with C. albicans (ATCC 10231) was determined as 4. The molecule also showed an MFC with C. albicans (ATCC 10231) (ATCC10231) of 125 µg/mL (≈ 247 µM).

In the case of `COc1ccc(OC)c(C2CC(c3cccs3)=NN2C2=NC(=O)CCS2)c1` (centres unmarked) [10b, 5,6-Dihydro-2-(4,5-dihydro-5-(2,5-dimethoxyphenyl)-3-(thiophen-2-yl)pyrazol-1-yl)-1,3-thiazin-4-one], the “ratio (MBC/MIC)” value in test [1] was 4. Further, in test [1] (P. aeruginosa), the “bactericidal or bacteriostatic effect” value is reported as “bactericidal”. Also, in test [1] (ATCC29853), the MBC is 250 µg/mL (≈ 623 µM). Moreover, the MIC in test [1] (ATCC29853) is 62.2 µg/mL (≈ 155 µM); in test [1] (setting [4]), 62.2 µg/mL (≈ 155 µM); in the test on B. subtilis (ATCC 9372) it was 62.5 µg/mL (≈ 156 µM); in the test with E. coli (ATCC25922), 125 µg/mL (≈ 311 µM); against C. albicans (ATCC 10231) (ATCC10231), 15.6 µg/mL (≈ 38.9 µM); with C. albicans (ATCC 10231) (setting [7]), 15.6 µg/mL (≈ 38.9 µM). Moreover, the MIC with S. aureus (ATCC 25923) was 250 µg/mL (≈ 623 µM). For the same molecule, the IC50 in test [2] amounted to 10.6 ± 0.31 µM. Moreover, the “ratio (MFC/MIC)” value in the test with C. albicans (ATCC 10231) stood at 2. The same molecule returned an MFC against C. albicans (ATCC 10231) (ATCC10231) of 31.2 µg/mL (≈ 77.8 µM).
